Reference: patent US10179914B2, “CDC25A inhibitor for the treatment of drug resistant cancer or for the prevention of tumor relapse” (INSERM (INSTITUT NATIONAL DE LA SANTÉ ET DE LA RECHERCHE …, priority 2014, dated 2019)

How the values were obtained:
[1] = test system: KG1 cells (FLT3 wild type); assay: Cell proliferation, trypan blue counting, KG1; type: cell-based, human
Method: (a) MV4-11 and MOLM-14 FLT3-ITD positive cells, KG1, HL-60 and TF-1 FLT3 wild type cells, and K562 FLT3 negative cells were cultured in the presence of the CDC25 inhibitor IRC-083864 (200 nM). Cells were harvested each day and counted after trypan blue coloration. The graph represents three independent experiments.
Cell lines and reagents. Human acute myeloid leukemia cell lines MOLM-14 (Matsuo Y et al, Leukemia 1997) (kindly provided by Martin Carroll, University of Pennsylvania, Philadelphia, Pa., USA) MV4-11, K562 (ACC-102 and ACC-10, DSMZ, Braunschweig, Germany) and FLT3-ITD-expressing murine BaF3 cells were cultured in RPMI 1640 medium (Gibco, Life Technologies, Carlsbad, Calif., USA) supplemented with 10% fetal bovine serum (Sigma, Saint Louis, Calif., USA). TF-1 (ATCC-CRL2003) cells were cultured in RPMI 1640 medium with 10% fetal bovine serum and GM-CSF 2 ng/ml. Concerning MOLM-14 cell line, the presence of a monoallelic 21 bp FLT3-ITD mutation and of an MLL-containing ins(11; 9)(q23;p22p23) were verified (Hematology laboratory of Toulouse University Hospital, Prof E. Delabesse and Dr I. Luquet). KG1 and HL-60 (ACC-14 and ACC-3, DSMZ) cell lines were grown in Iscove's Modified Dulbecco's Medium (IMDM, Gibco) plus 20% FBS. […]
siRNA. […] Twenty-four or forty-eight hours after transfection, cells were counted (trypan blue staining), and western blotting was performed.

[2] = test system: MOLM-14 TKD cells (FLT3-ITD-D835Y); assay: Cell proliferation, MOLM-14 expressing FLT3-ITD/TKD (D835Y); type: cell-based, human; conditions: 200 nM
From the text: Cells were harvested each day and counted after trypan blue staining. The graphs represent three independent experiments.
We consequently developed a cellular model consisting of MOLM-14 cells transfected with a FLT3-ITD mutant with a D835Y amino-acid substitution within the FLT3 kinase domain (FLT3-ITD-D835Y; FLT3-ITD/TKD).

[3] = molecular target: T1, Cdc25B (Homo sapiens, UniProt P30305); conditions: cited from earlier work
T1 sequence (P30305 1-580): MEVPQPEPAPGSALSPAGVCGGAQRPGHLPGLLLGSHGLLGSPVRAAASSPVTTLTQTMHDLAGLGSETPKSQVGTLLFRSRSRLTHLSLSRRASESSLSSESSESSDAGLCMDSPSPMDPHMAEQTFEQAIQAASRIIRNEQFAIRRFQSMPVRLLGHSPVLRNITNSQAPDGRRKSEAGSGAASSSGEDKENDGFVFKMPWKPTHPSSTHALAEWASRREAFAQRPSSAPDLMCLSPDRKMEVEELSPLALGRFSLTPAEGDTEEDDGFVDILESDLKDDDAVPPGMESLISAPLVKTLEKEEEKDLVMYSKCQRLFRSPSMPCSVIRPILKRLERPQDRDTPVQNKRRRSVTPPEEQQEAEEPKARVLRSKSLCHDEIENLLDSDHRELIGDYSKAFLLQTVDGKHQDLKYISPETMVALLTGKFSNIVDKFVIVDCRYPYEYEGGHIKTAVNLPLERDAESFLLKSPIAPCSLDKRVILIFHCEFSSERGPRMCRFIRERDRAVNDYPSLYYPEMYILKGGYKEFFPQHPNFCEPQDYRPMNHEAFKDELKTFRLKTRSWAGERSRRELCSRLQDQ

[4] = test system: human LNCaP xenografts; conditions: intravenous and oral routes; cited from earlier work

Q: With `Cc1nc2c(s1)C(=O)C=C(NCCCN(C)CCCNC1=CC(=O)c3nc(-c4cc(F)ccc4F)oc3C1=O)C2=O` [IRC-083864] as the compound, how does the “proliferation of KG1” value ([1]; 200 nM) read?
A: did not decrease

Q: What about the “proliferation of KG1 upon stimulation by FLT3 ligand” value ([1]; FLT3 ligand stimulation) of the same compound?
A: had no effect

Q: And the “proliferation and death of ITD/TKD cells” value [2]?
A: induced cell proliferation arrest and cell death

Q: And the “IC50 Cdc25 enzyme type B2” value ([3]; B2)?
A: nanomolar range

Q: What about the “IC50 Cdc25 enzyme type B3” value ([3]; B3) of the same compound?
A: nanomolar range

Q: What about the “growth of human LNCaP xenografts” value [4] of the same compound?
A: reduces the growth
